Measured values published in publication PMC9782245, “Synthesis and Structural Optimization of 2,7,9-Trisubstituted purin-8-ones as FLT3-ITD Inhibitors” (International Journal of Molecular Sciences, 2022).

What was measured:
[1] = biological target: T1, TTK (Homo sapiens, UniProt P33981); assay: Kinase selectivity panel at 1 µM (Eurofins), TTK; assay type: biochemical; details: read-out: residual enzyme activity TTK
T1 construct: purchased Eurofins Discovery (France)
T1 sequence (P33981 1-857): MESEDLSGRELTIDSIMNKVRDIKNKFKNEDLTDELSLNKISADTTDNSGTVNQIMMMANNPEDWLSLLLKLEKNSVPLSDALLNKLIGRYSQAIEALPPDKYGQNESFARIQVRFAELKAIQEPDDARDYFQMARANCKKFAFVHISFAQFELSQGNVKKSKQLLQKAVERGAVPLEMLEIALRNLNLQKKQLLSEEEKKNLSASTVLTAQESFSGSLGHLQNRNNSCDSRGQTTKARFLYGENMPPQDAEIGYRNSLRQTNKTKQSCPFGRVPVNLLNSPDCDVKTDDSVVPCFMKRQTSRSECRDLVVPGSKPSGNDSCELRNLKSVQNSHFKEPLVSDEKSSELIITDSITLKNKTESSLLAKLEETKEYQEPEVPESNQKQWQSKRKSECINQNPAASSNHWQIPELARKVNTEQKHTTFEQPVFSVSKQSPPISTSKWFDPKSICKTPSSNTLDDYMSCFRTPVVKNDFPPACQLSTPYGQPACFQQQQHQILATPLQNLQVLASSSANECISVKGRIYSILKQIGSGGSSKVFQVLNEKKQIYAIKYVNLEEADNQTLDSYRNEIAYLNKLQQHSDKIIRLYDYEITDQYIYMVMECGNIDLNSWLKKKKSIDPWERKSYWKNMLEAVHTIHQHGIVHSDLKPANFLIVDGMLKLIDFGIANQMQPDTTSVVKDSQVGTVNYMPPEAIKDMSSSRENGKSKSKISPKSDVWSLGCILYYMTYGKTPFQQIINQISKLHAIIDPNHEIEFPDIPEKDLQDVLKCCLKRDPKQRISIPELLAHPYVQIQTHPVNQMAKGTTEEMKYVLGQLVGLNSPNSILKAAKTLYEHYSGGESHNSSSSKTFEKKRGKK
Protocol: (§1) Three representative compounds (14d, 14e, and 15a) were profiled in a 1 µM concentration against 30 kinases that were selected as known off-targets of approved CDK4/6 inhibitors. […] Additional sensitive kinases include STK16, EphA1, MEKK2, SRC, and MER (≤10% of residual enzyme activities), which are not targets of the structurally similar CDK4/6 inhibitor, trilaciclib. We also screened compound 15a, an analogue of 14d, bearing isopropyl at position 7 of the purine instead of the methyl group. This change rapidly diminished the potency against CDK4 (dropped to 90% of residual enzyme activity), but the preference for FLT3 remained (1st rank) (Figure 2).
(§2) CDK/cyclin complexes and FLT3 kinases were assayed as previously described. Protein kinase selectivity was evaluated at a single concentration (1 µM) by screening against 30 enzymes at Eurofins Discovery (France).

[2] = biological target: T2, Lyn (Homo sapiens, UniProt P07948); assay: Kinase selectivity panel at 1 µM (Eurofins), Lyn; assay type: biochemical; details: read-out: residual enzyme activity Lyn
T2 construct: purchased Eurofins Discovery (France)
Protocol: as §1, §2

[3] = biological target: T3, Abl (Homo sapiens, UniProt P00519); assay: Kinase selectivity panel at 1 µM (Eurofins), Abl; assay type: biochemical; details: read-out: residual enzyme activity Abl
T3 construct: purchased Eurofins Discovery (France)
Protocol: as §1, §2

[4] = system: MV4-11 cells; assay: Flow cytometric cell cycle analysis, MV4-11; assay type: cell-based, Human; details: increasing doses, 24 h
Protocol: (§3) FLT3 inhibition causes G1-cell cycle arrest in FLT3-dependent cell lines such as MV4-11; we, therefore, performed flow cytometric analysis to evaluate cell cycle changes in MV4-11 and K562 cell lines treated with 200 nM compounds for 24 h. […] Specifically, 18 compounds arrested >85% of cells in the G1 phase, which is >30% cells in the G1 phase of the cell cycle than in control cells (Figure 4A).
(§4) Finally, we performed flow cytometric analysis with different concentrations of 15a in MV4-11 and MOLM13 (another FLT-ITD positive cell line) and K562 cell lines treated for 24 h (Figure 5).
(§5) Asynchronously growing cells were seeded into a 96-well plate and, after a preincubation period, treated with tested compounds for 24 h. The treated cells were stained directly (or after trypsinization for the adherent cells) with the 5× staining solution (17 mM trisodium citrate dihydrate, 0.5% IGEPAL CA-630, 7.5 mM spermine tetrahydrochloride, and 2.5 mM Tris; pH 7.6 containing […] propidium iodide). After the staining, DNA content was analyzed using flow cytometry using a 488 nm laser (BD FACS Verse with software BD FACSuite^TM, version 1.0.6). Cell cycle distribution was analyzed using ModFit LT (Verity Software House, version 5.0). Palbociclib, trilaciclib, and quizartinib were purchased from MedChemExpress, Monmouth Junction, NJ, USA.

[5] = system: K562 cells; assay: Flow cytometric cell cycle analysis, K562; assay type: cell-based, Human; details: 24 h
Protocol: as §3, §4, §5

[6] = system: MOLM13 cells; assay: Flow cytometric cell cycle analysis, MOLM13; assay type: cell-based; details: increasing doses, 24 h
Protocol: as §4
as §5, with “5.0).” for “5.0). Palbociclib, trilaciclib, and quizartinib were purchased from MedChemExpress, Monmouth Junction, NJ, USA.”

[7] = system: FLT3 signaling (FLT3 Y589/591, STAT5, ERK1/2) in MV4-11 cells; assay: Western blot of FLT3 and downstream signaling in MV4-11; assay type: cell-based, Human; details: MV4-11, 1 h treatment
Protocol: Next, we investigated the compounds for their ability to inhibit FLT3 and its downstream signaling in the MV4-11 cell line.
Cell lysates were prepared, and then proteins were separated on SDS-polyacrylamide gels and electroblotted onto nitrocellulose membranes.

[8] = system: MV4-11 xenograft; assay: MV4-11 subcutaneous xenograft model in NSG mice; assay type: in vivo; details: 20 mg/kg, daily i.p.
Text: Finally, we tested the in vivo activity of 15a in a model of AML based on subcutaneous xenotransplantation of MV4-11 cells in immunodeficient mice.
The experimental design was approved by the Institutional Animal Care and Use Committee (MSMT-37334/2020-4). Immunodeficient adult female NOD.Cg-Prkdc^scidIl2rg^tm1Wjl/SzJ mice (referred to as NSG mice) were purchased from The Jackson Laboratory and preserved in a pathogen-free environment in individually ventilated cages, provided with sterilized food and water. NSG mice were subcutaneously inoculated with 10 × 10^6 leukemia cells. […] Each cohort contained 6 animals. Three perpendicular dimensions (in millimeters) were measured daily with a digital caliper and tumor volumes were calculated using the following formula: π/6 × length × width × height. An experiment was terminated (and mice euthanized) when tumors exceeded 20 mm in the largest diameter.

[9] = Stability studied on Caco-2 cells; assay type: in vitro ADME; details: in comparison with trilaciclib

T3 sequence (P00519 whole entry): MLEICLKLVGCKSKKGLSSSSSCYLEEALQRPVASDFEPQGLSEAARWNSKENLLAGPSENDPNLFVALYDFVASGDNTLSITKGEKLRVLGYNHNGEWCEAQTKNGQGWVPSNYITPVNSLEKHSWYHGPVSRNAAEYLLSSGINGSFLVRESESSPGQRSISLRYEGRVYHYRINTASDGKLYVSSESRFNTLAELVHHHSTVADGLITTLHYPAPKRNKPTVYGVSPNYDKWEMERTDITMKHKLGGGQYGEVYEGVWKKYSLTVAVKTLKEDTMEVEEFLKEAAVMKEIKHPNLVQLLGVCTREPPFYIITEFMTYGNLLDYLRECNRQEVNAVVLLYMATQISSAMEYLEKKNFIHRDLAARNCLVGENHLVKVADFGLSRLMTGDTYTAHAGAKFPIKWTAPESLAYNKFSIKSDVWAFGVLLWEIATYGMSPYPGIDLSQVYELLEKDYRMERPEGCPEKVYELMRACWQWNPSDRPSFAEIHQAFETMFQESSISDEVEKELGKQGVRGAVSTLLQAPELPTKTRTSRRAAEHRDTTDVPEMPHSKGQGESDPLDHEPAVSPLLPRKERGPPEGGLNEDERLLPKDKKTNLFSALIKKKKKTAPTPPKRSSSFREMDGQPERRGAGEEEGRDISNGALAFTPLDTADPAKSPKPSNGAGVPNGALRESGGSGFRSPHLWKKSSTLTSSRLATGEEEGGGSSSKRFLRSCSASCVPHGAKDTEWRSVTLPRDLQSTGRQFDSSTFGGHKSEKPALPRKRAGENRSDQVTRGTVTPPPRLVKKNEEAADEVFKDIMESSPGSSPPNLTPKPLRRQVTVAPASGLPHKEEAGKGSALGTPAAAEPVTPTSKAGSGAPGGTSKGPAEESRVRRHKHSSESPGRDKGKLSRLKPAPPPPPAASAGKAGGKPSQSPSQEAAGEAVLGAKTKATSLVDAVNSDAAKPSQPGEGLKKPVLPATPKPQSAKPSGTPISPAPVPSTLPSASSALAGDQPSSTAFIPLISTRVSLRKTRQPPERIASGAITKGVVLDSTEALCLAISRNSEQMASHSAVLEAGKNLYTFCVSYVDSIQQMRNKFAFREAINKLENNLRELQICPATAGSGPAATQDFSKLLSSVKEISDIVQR
T2 sequence (P07948 whole entry): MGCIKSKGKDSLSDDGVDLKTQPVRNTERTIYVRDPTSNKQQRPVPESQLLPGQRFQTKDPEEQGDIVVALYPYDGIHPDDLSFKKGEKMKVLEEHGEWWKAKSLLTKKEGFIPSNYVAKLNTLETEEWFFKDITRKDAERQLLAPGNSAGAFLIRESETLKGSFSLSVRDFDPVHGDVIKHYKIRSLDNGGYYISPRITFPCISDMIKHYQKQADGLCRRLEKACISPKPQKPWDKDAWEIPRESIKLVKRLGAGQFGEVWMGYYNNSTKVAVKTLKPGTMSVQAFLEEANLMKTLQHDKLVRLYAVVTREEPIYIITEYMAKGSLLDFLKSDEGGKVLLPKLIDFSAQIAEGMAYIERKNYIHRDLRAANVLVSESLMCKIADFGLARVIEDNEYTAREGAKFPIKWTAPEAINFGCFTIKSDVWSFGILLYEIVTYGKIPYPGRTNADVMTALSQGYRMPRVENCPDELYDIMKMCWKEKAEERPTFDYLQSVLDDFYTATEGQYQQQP

Structure (SMILES): Cn1c(=O)n(C2CCCC2)c2nc(Nc3ccc(N4CCNCC4)cc3)ncc21 [14d]
- melting point: 110 to 112 °C

Structure (SMILES): CC(C)n1c(=O)n(C2CCCC2)c2nc(Nc3ccc(N4CCNCC4)cc3)ncc21 [15a, 9-cyclopentyl-7-isopropyl-2-((4-(piperazin-1-yl)phenyl)amino)-7,9-dihydro-8H-purin-8-one]
- remaining activity at 1 µM [1]: ≤ 10%
- remaining activity at 1 µM [2]: ≤ 10%
- remaining activity at 1 µM [3]: ≤ 10%
- cells in the G1 phase, MV4-11 [4]: up to 90%
- cell cycle changes in K562 ([5]; different concentrations): did not show any changes
- cells in the G1 phase, MOLM13 [6]: up to 90%
- concentration at which dephosphorylation of FLT3 was observed [7]: 8 nM
- concentration giving nearly complete suppression of ERK1/2 [7]: 40 nM
- mice weight during therapy [8]: no significant reduction in mice weight
- growth of xenografted MV4-11 cells ([8]; 7 days, vs vehicle): significant reduction in the growth

Structure (SMILES): Cn1c(=O)n(C2CCCCC2)c2nc(Nc3ccc(N4CCNCC4)cc3)ncc21 [14e]
- effect on cell cycle (G1 arrest) in K562 ([5]; 200 nM): moderate G1 block
- autophosphorylation of FLT3 kinase at Y589/591 [7]: inhibits autophosphorylation of FLT3 kinase at Y589/591
- phosphorylation of downstream proteins STAT5 and ERK1/2 [7]: diminishes the phosphorylation
- stability (Caco-2 cells) [9]: substantially higher stability
